Experiments:
Assay type in all cases: cell-based
human TLR7 = target: T1, human TLR7 (Homo sapiens, UniProt Q9NYK1); test: TLR7 inhibition reporter assay (HEK-Blue SEAP); conditions: HEK-Blue cells overexpressing human TLR7, stimulated with gardiquimod 7.5 μM, 22 hour incubation
T1 construct: host or cells: HEK-Blue cells
T1 sequence (Q9NYK1 27-1049): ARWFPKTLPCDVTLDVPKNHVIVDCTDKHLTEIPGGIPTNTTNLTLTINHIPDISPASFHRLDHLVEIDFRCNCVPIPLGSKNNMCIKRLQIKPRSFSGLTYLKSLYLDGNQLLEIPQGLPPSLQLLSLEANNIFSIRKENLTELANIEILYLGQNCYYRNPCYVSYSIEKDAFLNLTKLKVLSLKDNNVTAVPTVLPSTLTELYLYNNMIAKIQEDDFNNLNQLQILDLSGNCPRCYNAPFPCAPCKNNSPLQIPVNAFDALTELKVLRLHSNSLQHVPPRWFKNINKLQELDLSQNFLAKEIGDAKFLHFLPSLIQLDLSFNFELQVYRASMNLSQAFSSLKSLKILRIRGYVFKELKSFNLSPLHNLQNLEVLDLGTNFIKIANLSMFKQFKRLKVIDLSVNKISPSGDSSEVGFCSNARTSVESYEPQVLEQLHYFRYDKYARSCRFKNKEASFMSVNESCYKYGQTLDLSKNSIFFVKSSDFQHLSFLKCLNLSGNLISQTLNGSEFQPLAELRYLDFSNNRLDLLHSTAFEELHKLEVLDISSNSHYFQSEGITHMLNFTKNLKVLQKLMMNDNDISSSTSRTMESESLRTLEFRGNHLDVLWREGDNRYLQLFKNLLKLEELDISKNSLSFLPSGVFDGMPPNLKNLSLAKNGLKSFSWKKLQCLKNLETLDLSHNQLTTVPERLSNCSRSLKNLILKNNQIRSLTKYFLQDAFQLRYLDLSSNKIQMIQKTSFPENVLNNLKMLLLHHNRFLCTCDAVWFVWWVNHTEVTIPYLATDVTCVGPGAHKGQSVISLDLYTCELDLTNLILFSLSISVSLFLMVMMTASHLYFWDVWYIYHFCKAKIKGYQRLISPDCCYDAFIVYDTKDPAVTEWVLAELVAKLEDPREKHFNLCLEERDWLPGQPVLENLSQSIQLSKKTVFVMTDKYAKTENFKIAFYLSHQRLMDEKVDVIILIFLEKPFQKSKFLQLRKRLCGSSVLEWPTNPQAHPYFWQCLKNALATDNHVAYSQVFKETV
Method in brief: (§1)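 Reporter HEK-Blue lines; cpd 0.05 nM–50 μM, 30 min preincubation RT; agonist: TLR7 gardiquimod 7.5 μM, TLR8 R848 15.9 μM, TLR9 ODN2006 5 nM; 22 h 37 °C; SEAP detected colorimetrically; % inhib vs known inhibitor.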

human TLR9 = target: T2, human TLR9 (Homo sapiens, UniProt Q9NR96); test: TLR9 inhibition reporter assay (HEK-Blue SEAP); conditions: HEK-Blue cells overexpressing human TLR9, stimulated with ODN2006 5 nM, 22 hour incubation
T2 construct: host or cells: HEK-Blue cells
T2 sequence (Q9NR96 26-1032): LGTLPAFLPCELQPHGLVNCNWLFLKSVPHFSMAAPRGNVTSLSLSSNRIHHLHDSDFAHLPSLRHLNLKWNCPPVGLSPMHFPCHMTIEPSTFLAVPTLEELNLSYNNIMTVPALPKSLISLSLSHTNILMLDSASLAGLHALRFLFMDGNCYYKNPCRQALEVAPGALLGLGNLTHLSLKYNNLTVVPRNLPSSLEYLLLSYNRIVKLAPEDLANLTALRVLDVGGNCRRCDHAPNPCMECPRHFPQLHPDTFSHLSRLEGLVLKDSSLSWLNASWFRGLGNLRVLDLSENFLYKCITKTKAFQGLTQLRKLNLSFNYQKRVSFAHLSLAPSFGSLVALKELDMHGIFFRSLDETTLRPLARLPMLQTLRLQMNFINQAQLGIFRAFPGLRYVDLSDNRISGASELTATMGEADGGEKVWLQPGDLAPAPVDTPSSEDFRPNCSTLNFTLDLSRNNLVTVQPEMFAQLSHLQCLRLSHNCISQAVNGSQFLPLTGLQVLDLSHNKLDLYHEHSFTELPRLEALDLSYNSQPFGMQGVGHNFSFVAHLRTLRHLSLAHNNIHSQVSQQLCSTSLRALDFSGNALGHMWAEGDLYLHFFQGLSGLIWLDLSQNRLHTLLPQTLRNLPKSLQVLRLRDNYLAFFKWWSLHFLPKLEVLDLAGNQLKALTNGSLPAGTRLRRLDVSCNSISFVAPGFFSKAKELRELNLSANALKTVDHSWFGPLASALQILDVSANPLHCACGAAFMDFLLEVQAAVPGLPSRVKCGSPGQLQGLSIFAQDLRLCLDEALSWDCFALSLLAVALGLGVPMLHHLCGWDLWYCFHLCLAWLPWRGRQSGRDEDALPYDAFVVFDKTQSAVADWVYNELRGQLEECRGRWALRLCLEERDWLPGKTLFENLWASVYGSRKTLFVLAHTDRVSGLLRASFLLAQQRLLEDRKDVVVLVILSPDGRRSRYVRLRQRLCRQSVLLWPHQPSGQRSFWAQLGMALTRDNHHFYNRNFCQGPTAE
Method in brief: as §1

human TLR8 = target: T3, human TLR8 (Homo sapiens, UniProt Q9NR97); test: TLR8 inhibition reporter assay (HEK-Blue SEAP); conditions: HEK-Blue cells overexpressing human TLR8, stimulated with R848 15.9 μM, 22 hour incubation
T3 construct: host or cells: HEK-Blue cells
T3 sequence (Q9NR97 27-1041): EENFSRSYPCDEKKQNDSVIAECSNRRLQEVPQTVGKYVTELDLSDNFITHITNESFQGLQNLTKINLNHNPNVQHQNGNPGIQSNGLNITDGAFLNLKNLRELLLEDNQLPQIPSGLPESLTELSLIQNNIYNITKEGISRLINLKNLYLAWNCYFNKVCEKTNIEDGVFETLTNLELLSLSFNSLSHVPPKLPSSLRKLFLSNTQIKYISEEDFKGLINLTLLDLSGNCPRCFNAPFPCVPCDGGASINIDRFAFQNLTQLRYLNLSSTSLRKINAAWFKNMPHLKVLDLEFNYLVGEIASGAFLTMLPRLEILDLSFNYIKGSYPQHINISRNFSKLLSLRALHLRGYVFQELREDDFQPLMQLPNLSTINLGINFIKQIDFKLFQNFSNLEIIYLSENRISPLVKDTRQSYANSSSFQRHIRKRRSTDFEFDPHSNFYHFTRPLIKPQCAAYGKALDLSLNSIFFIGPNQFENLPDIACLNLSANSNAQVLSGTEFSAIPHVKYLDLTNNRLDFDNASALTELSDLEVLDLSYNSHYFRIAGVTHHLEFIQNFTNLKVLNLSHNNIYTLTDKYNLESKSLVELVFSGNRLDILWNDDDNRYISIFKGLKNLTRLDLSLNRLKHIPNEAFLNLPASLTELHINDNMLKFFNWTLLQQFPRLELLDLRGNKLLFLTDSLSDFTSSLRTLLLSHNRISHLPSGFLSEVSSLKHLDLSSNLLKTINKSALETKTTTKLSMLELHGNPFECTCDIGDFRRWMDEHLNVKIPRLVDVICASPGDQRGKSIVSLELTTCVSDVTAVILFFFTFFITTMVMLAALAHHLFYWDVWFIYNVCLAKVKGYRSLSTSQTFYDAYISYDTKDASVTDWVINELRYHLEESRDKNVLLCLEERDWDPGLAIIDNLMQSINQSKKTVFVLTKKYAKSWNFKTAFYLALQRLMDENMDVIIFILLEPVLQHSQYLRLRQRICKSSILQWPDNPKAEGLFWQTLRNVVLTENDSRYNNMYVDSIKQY
Method in brief: as §1

Molecule | IC50 (human TLR7) [nM] | IC50 (human TLR9) [nM] | IC50 (human TLR8) [nM]
Cc1cc2c(C3CCC(N(C)C)CC3)n[nH]c2cc1-c1cc(C)c2ncnn2c1 (single isomer, unassigned) [Example 4, N,N-dimethyl-4-(5-methyl-6-(8-methyl-[1,2,4]triazolo[1,5-a]pyridin-6-yl)-1H-indazol-3-yl)cyclohexan-1-amine] | 19.9 | 2820 | 0.7
5-methyl-6-(8-methyl-[1,2,4]triazolo[1,5-a]pyridin-6-yl)-N-(piperidin-4-yl)-1H-indazol-3-amine [Example 203] | 51.7 | 1420 | 2.1
Cc1cc2c(CC3CCNCC3)n[nH]c2cc1-c1cc(C)c2ncnn2c1 [Example 10, 8-methyl-6-(5-methyl-3-(piperidin-4-ylmethyl)-1H-indazol-6-yl)-[1,2,4]triazolo[1,5-a]pyridine] | 68.9 | 1010 | 3.8
Cc1cc2c(C3CCCN(C4COC4)C3)n[nH]c2cc1-c1cc(C)c2ncnn2c1 (stereo not drawn) [Example 42, 8-methyl-6-(5-methyl-3-(1-(oxetan-3-yl)piperidin-3-yl)-1H-indazol-6-yl)-[1,2,4]triazolo[1,5-a]pyridine] | 83.6 | 14500 | 0.9
Cc1cc2c(C3CCC(NC(C)C)CC3)n[nH]c2cc1-c1cc(C)c2ncnn2c1 (single isomer, unassigned) [Example 39, N-isopropyl-4-(5-methyl-6-(8-methyl-[1,2,4]triazolo[1,5-a]pyridin-6-yl)-1H-indazol-3-yl) cyclohexan-1-amine] | 22.6 | 4120 | 0.9
Cc1cc(-c2cc(C)c3ncnn3c2)cc2[nH]nc(OC3CCC(N(C)C)CC3)c12 (single isomer, unassigned) [Example 179, N,N-dimethyl-4-((4-methyl-6-(8-methyl-[1,2,4]triazolo[1,5-a]pyridin-6-yl)-1H-indazol-3-yl)oxy)cyclohexan-1-amine] | 3.3 | 2080 | 8.5
Cc1cc2c(C3CC(N(C)C)C3)n[nH]c2cc1-c1cc(C)c2ncnn2c1 (single isomer, unassigned) [Example 6, N,N-dimethyl-3-(5-methyl-6-(8-methyl-[1,2,4]triazolo[1,5-a]pyridin-6-yl)-1H-indazol-3-yl)cyclobutan-1-amine] | 9.3 | 3210 | 0.3
COc1cc2c(C3CCNCC3)n[nH]c2cc1-c1cc(C)c2ncnn2c1 [Example 19, 6-(5-methoxy-3-(piperidin-4-yl)-1H-indazol-6-yl)-8-methyl-[1,2,4]triazolo[1,5-a]pyridine] | 31.8 | 1780 | 11.2
CCc1cc2c(C3CCC(N(C)C)CC3)n[nH]c2cc1-c1cc(C)c2ncnn2c1 (single isomer, unassigned) [Example 94, 4-(5-ethyl-6-(8-methyl-[1,2,4]triazolo[1,5-a]pyridin-6-yl)-1H-indazol-3-yl)-N,N-dimethylcyclohexan-1-amine] | 3 | 10300 | 0.5
Cc1cc(-c2cc3[nH]nc(C4CCC(N5CC6(CCO6)C5)CC4)c3cc2C(C)C)cn2ncnc12 (stereo not drawn) [Example 156, 6-(4-(5-isopropyl-6-(8-methyl-[1,2,4]triazolo[1,5-a]pyridin-6-yl)-1H-indazol-3-yl)cyclohexyl)-1-oxa-6-azaspiro[3.3]heptane] | 0.8 | 6110 | 0.1
Cc1cc(-c2cc3[nH]nc(C4CCN(C(C)C)CC4)c3cc2C(C)C)cn2ncnc12 [Example 123, 6-(5-isopropyl-3-(1-isopropylpiperidin-4-yl)-1H-indazol-6-yl)-8-methyl-[1,2,4] triazolo[1,5-a]pyridine] | 0.5 | 5660 | 0.1
COc1cc(-c2cc(C)c3ncnn3c2)cc2[nH]nc(C3CCNCC3)c12 [Example 86, 6-(4-methoxy-3-(piperidin-4-yl)-1H-indazol-6-yl)-8-methyl-[1,2,4]triazolo[1,5-a]pyridine] | 5.8 | 1290 | 21.8

Source: US12172995B2, “Substituted indole and indazole compounds” (BRISTOL-MYERS SQUIBB COMPANY, priority 2018, dated 2024)
